Five molecules from PMC10341795, “N-Methyl Costaricine and Costaricine, Two Potent Butyrylcholinesterase Inhibitors from Alseodaphne pendulifolia Gamb” (International Journal of Molecular Sciences, 2023) can be followed below.

“Also recorded” adds a separate entry of the source. Read-outs that look alike come from different tables or passages of the source.

For assay [1], the target named is T1, AChE from Electrophorus electricus (Electrophorus electricus, UniProt O42275).
T1 construct: purchased Sigma-Aldrich Co. LLC; (St. Louis, MO, USA)
T1 sequence (O42275 24-633): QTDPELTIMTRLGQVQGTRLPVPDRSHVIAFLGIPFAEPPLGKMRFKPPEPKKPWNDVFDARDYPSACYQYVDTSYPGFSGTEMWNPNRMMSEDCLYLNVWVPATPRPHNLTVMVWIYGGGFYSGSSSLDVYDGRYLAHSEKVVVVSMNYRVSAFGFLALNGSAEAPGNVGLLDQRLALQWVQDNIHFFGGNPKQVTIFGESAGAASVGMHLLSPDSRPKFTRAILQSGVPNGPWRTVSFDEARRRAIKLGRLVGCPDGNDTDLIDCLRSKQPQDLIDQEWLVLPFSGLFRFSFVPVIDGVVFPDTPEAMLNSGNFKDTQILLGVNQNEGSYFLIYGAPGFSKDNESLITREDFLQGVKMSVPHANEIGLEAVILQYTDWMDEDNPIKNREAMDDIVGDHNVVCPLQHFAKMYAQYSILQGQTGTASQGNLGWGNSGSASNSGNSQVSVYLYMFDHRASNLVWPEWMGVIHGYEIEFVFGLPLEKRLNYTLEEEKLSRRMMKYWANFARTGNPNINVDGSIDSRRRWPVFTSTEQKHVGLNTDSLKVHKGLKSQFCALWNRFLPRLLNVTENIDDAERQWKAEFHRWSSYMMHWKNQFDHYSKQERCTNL
Briefly: biochemical. The following applies: for Selectivity Index AChE: IC50 (BChE)/IC50 (AChE); for inhibition at 100 µM: read-out: Percentage Inhibition at 100 µM, AChE, 100 µM. Here is the method:
(§1) The cholinesterase inhibitory activities of the extracts and fompounds 1–6 were performed as previously described. AChE from Electrophorus electricus and BChE from equine serum were purchased from Sigma-Aldrich Co. LLC. (St. Louis, MO, USA). An amount of 0.1 M of sodium phosphate buffer (pH 8) was added to a 96-well microplate followed by the sample and 1U of the AChE or BChE. Then, 10 mM of 5,5′-dithiobis(2-nitrobenzoic acid) (DTNB) was added followed by 14 mM of acetylthiocholine iodide or S-butyrylthiocholine chloride. The final concentration of DMSO was 1%.

The target in a further assay is T2, BChE from equine serum (Equus caballus, UniProt P81908).
T2 construct: AChE from Electrophorus electricus and BChE from equine serum were purchased from Sigma-Aldrich Co. LLC; purchased Sigma-Aldrich Co. LLC; (St. Louis, MO, USA); host or cells: equine serum
T2 sequence (P81908 whole entry): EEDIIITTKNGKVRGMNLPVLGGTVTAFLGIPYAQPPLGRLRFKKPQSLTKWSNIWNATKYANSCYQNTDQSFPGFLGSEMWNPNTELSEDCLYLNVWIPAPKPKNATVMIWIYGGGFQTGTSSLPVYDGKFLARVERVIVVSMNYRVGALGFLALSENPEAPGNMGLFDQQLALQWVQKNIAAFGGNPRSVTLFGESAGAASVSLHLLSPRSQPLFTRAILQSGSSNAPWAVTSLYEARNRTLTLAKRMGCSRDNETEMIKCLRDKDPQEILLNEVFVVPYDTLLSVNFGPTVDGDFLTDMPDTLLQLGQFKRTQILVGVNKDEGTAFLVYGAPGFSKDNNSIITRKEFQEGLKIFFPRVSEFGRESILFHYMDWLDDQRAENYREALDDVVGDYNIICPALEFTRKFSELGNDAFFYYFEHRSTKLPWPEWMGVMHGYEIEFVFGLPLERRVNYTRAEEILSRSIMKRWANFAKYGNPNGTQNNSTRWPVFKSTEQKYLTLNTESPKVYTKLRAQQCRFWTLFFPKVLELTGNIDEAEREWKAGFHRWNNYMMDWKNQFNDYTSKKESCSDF
Briefly: biochemical. In kind it is biochemical. Conditions: for Selectivity Index BChE: IC50 (AChE)/IC50 (BChE); for BChE potency relative to galantamine: comparison of IC50 values; for Cholinesterase selectivity (in words): from selectivity indices, AChE vs BChE; for inhibition at 100 µM: read-out: Percentage Inhibition at 100 µM, BChE, 100 µM. Here is the method: as §1

For a further assay, the target named is T3, BChE (Equus caballus, UniProt P81908).
T3 construct: AChE from Electrophorus electricus and BChE from equine serum were purchased from Sigma-Aldrich Co. LLC; purchased Sigma-Aldrich Co. LLC; (St. Louis, MO, USA); host or cells: equine serum
T3 sequence (P81908 whole entry): as above
Description: Enzyme kinetic study against BChE (Lineweaver-Burk and secondary plots). The assay is classed as biochemical. The following applies: for Mode of inhibition against BChE: Lineweaver-Burk plot. Here is the method:
as §1, with “1%. Galanthamine was used as the standard for validation and result comparison. The absorbance was measured using a Tecan Infinite 200 Pro Microplate Spectrometer at 412 nm for 30 min.” for “1%.”
The enzyme kinetic studies of compounds 1 and 2 against BChE were performed in a similar manner to the in vitro BChE inhibition assay. The enzyme inhibition kinetic was carried out in the presence of three concentrations of the inhibitors, compounds 1 and 2, at various concentrations of the substrate, S-butyrylthiocholine chloride by constructing a Lineweaver–Burk plot (reciprocal plots of 1/V versus 1/[S]). The inhibition constant (Ki) was estimated from the secondary plot of the Lineweaver–Burk plot.

As for `COc1cc2c(cc1O)C(Cc1ccc(Oc3cc(CC4c5cc(O)c(OC)cc5CCN4C)ccc3OC)cc1)NCC2` (stereo not shown) [Compound 1, N-methyl costaricine], in assay [1], the “Selectivity Index AChE” value came to 0.15. For the same molecule, in assay [1] (mean ± SD (n = 3), read-out: IC50 AChE), the IC50 worked out at 22.8 ± 1.25 µM. The inhibition at 100 µM in assay [1] (mean ± SD (n = 3)) was more than 70%. At BChE from equine serum, the “Selectivity Index BChE” value stood at 6.48, the “BChE potency relative to galantamine” value was “two-fold more potent than galantamine” and the “Cholinesterase selectivity (in words)” value is on record as “BChE selective inhibitors”. On BChE from equine serum (mean ± SD (n = 3), read-out: IC50 BChE), the IC50 turned out to be 3.51 ± 0.8 µM. In addition, the “Mode of inhibition against BChE” value at BChE is “mixed-mode inhibitors; also recorded: mixed-mode inhibition”. Further, the Ki at BChE (derived from secondary plots of Lineweaver-Burk plots, read-out: Inhibition constant Ki against BChE) is 0.67 µM.
As for `COc1cc2c(cc1O)[C@@H](Cc1ccc(Oc3cc(C[C@H]4NCCc5cc(OC)c(O)cc54)ccc3OC)cc1)NCC2` [Compound 2, costaricine], in assay [1], the IC50 was 17.5 ± 2.16 µM and the “Selectivity Index AChE” value is recorded as 0.17. The inhibition at 100 µM in assay [1] (mean ± SD (n = 3)) was more than 70%. In addition, on BChE from equine serum, it took 2.9 ± 0.56 µM to reach half-maximal inhibition (IC50), the “Selectivity Index BChE” value is reported as 6.03, the “BChE potency relative to galantamine” value is “two-fold more potent than galantamine” and the “Cholinesterase selectivity (in words)” value is “BChE selective inhibitors”. At BChE, the Ki amounted to 0.05 µM and the “Mode of inhibition against BChE” value is on record as “mixed-mode inhibitors; also recorded: mixed-mode inhibition”. Also, at BChE (ratio of Ki values), the “Fold higher affinity to BChE compared to compound 1” value is listed as 13 fold.
Regarding `COc1ccc2c(c1OC)-c1c(OC)c(OC)cc3c1C(C2)NCC3` (stereo not shown) [Compound 3, hernagine], the inhibition at 100 µM in assay [1] (mean ± SD (n = 3)) was less than 10%; on BChE from equine serum (mean ± SD (n = 3)), 88.87 ± 0.56%. Besides, at BChE from equine serum, the midpoint of inhibition, the IC50, lay at 32.9 ± 0.99 µM.
The like results for `COc1ccc2c(c1OC)-c1c(OC)c(OC)cc3c1C(C2)N(C)CC3` (stereo not shown) [Compound 4, N-methyl hernagine] were, in that order, 23.1 ± 8.39%, 77.8 ± 3.73% and 49.7 ± 3.95 µM.
The like results for `COc1cc2c3c(c1O)-c1c(ccc(OC)c1OC)C[C@@H]3N(C)CC2` [Compound 5, corydine] were, in that order, 29.7 ± 1.85%, 77.9 ± 1.73% and 52.9 ± 4.11 µM.
